These results are taken from US6228985A, “Derivatives of aminobenzoic and aminobiphenylcarboxylic acids useful as anti-cancer agents” (Schering Corporation, priority 1998, dated 2001).

The subject of one assay is uPA:uPAR interaction.
Test: not given
To be noted: cited from earlier work.
In the case of `Cc1ccc(C(=O)Nc2ccc(S(=O)(=O)O)c3cc(S(=O)(=O)O)cc(S(=O)(=O)O)c23)cc1NC(=O)c1cccc(NC(=O)Nc2cccc(C(=O)Nc3cc(C(=O)Nc4ccc(S(=O)(=O)O)c5cc(S(=O)(=O)O)cc(S(=O)(=O)O)c45)ccc3C)c2)c1` [suramin], the “inhibition of the uPA:uPAR interaction” value is given as “inhibit the uPA:uPAR interaction”.

In the next assay the target is uPAR.
Test: not given
The settings on record: critical domain alone (uPA,12-32); read-out: affinity; cited from earlier work.
For “uPA,12-32: The critical domain alone (uPA,12-32); residues 12-32 of the EGF-like domain of uPA (DCLNGGTCVSNKYFSNIHWCN; UniProt P00749 32-52, looked up, fragment)”, the Kd was 40 nM.

Staying with this assay, now noted: less than intact ATF; cited from earlier work.
For the compound “uPA,12-32: The critical domain alone (uPA,12-32); residues 12-32 of the EGF-like domain of uPA (DCLNGGTCVSNKYFSNIHWCN; UniProt P00749 32-52, looked up, fragment)”, the “affinity relative to intact ATF (fold less)” value was “about 100 fold”.

For the next assay, the target named is T1, uPAR (Homo sapiens, UniProt Q03405).
T1 construct: these cells express high levels of unoccupied uPA receptors; endogenous in cells; host or cells: DU-145 human prostate cancer cells (intact cells, harvested with trypsin/EDTA)
T1 sequence (Q03405 23-335): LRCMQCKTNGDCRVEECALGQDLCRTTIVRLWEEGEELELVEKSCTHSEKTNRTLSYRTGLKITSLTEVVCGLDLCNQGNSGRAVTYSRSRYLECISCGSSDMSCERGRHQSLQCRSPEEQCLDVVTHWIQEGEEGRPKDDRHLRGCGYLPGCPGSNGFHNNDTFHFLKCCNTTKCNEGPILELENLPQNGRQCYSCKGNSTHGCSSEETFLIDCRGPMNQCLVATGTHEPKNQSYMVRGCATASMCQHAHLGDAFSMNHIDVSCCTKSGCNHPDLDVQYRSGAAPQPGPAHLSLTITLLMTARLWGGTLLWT
The experiment in a line: cell-based, competition radioligand binding assay (specific binding of c-[125I-Tyr24]-ATFp to DU-145 cells). To be noted: radioligand c-[125I-Tyr24]-ATFp 3 nM (1.5 Kd), 4° C. for 90 min, duplicate tubes, 2-3 independent experiments. The protocol:
The following assay procedure, which is a cell-based, competition radioligand binding assay, was carried out to determine the activity of the foregoing compounds as uPAR antagonists.
Radioligand Preparation. The minimal receptor-binding sequence of uPA was determined by Apella et al., J. Biol. Chem. 262:4437-4440 (1987), utilizing non-radioactive peptides as competition for a larger uPA radioligand. Our assay was developed and characterized using an iodinated version of the minimal receptor binding sequence of human uPA (residues 12-32, Ala^19). The 21-amino acid peptide (cyclized), referred to herein as "c-ATFp", was synthesized and iodinated as follows: 10 ug of c-ATFp was iodinated with 1 mCi Na^125 I, using the Chloramine-T method (Iodo-Beads, Pierce Chemical Co.); iodinated peptide was separated from unincorporated iodine with Sep-Pak C18 cartridges (Millipore), and the C18-bound peptide was eluted with acetonitrile. This procedure routinely yielded a radioiodinated c-ATFp (c-[^125 I-Tyr^24 ]-ATFp) with specific activity of 105 Ci/mmol: [drawing 101]
Determination of Radioligand Binding. DU-145, a human prostate cancer cell line, was selected for radioligand binding assays because these cells express high levels of unoccupied uPA receptors (approximately 500,000 receptors/cell). Subconfluent, 2 day cultures of DU-145 cells were prepared for radioligand binding assays by harvesting monolayers with trypsin/EDTA. The cells were washed one time with serum-free Dulbecco's Modified Eagle Medium (DMEM), and suspended at a cell density of 250,000 cells/ml in ice-cold DME containing 0.1% bovine serum albumin. Test compounds were solubilized in DMSO at 2 mg/ml and subsequently diluted in phosphate buffered saline to prepare stock concentrations of 200 ug/ml, 20 ug/ml, 2 ug/ml, 0.2 ug/ml, and 0.02 ug/ml. The binding reactions were initiated by addition of 1.0 ml cell suspension to microcentrifuge tubes containing 10 ul of: the indicated test compound solutions, or appropriately diluted DMSO controls, and c-[^25 ]-Tyr^24 ]-ATFp, such that the final concentration of radioligand was 3 nM (1.5 Kd). To control for specific binding, parallel reaction tubes were prepared containing 1,000-fold excess unlabeled c-ATFp. Reaction tubes were incubated with rocking at 4° C. for 90 min. Binding was terminated by 4° C. centrifugation at 800× g for 1 min in a refrigerated microcentrifuge. Unbound radioligand was removed by aspirating the reaction medium, adding fresh, ice-cold DMEM, 0.1% bovine serum albumin to the pelleted cells, and then quickly re-centrifuging and aspirating the wash from the cell pellet. The washing steps were completed in 2-4 minutes by this method, depending on the number of tubes in each experiment. Tips of microcentrifuge tubes containing the cell pellets were snipped and transferred to counting tubes. Radioactivity bound to the cells was determined in a gamma counter.
Specific binding of the radioligand was calculated as the difference between the amount of c-[^125 I-Tyr^24 ]-ATFp bound in the absence (total binding) and presence (non-specific binding) of the unlabeled c-ATFp. The efficacy of test compounds for inhibiting specific binding of c-[^125 I-Tyr^24 ]-ATFp was determined by plotting a graph of specific binding (y-axis) as a function of test compound concentration (x-axis). The concentration of test compound required to inhibit 50% of the specific binding (lC50) was determined from the plot. The IC50 may be directly converted mathematically to Ki, which is a measure of the receptor binding affinity of the compounds under the defined assay conditions. Test compounds were evaluated in duplicate tubes, in 2-3 independent binding experiments.
Regarding `CC(=O)N[C@@H](CCC(N)=O)C(=O)Nc1ccc(-c2ccc(C(=O)N[C@@H](Cc3ccccc3)C(=O)O)cc2)cc1` [Example 9-S], the IC50 – broadly, the concentration at which inhibition is half-maximal – was found to be 6 nM.

As for `CC(=O)N[C@@H](Cc1ccccc1)C(=O)Nc1ccc(-c2ccc(C(=O)N[C@@H](Cc3ccccc3)C(=O)O)cc2)cc1` [Example 8-Q], the IC50 was found to be 18 nM.

The compound `CC(=O)N[C@@H](Cc1c[nH]c2ccccc12)C(=O)Nc1ccc(-c2ccc(C(=O)N[C@@H](CC(=O)O)C(=O)O)cc2)cc1` [Example 9-H] registered an IC50 of 60 nM. Against the preceding compound, the IC50 is about 3.3-fold higher.

As to `O=C(O)C[C@H](NC(=O)c1ccc(-c2ccc(NC(=O)[C@H](Cc3c[nH]c4ccccc34)NC(=O)OCC3c4ccccc4-c4ccccc43)cc2)cc1)C(=O)O` [Example 9-C], the IC50 amounted to 300 nM.

`CC(=O)N[C@H](Cc1c[nH]c2ccccc12)C(=O)Nc1ccc(-c2ccc(C(=O)N[C@@H](CC(=O)O)C(=O)O)cc2)cc1` [Example 9-I]: the IC50 is 17 nM.

On to `CC(=O)N[C@@H](Cc1c[nH]c2ccccc12)C(=O)Nc1ccc(-c2ccc(C(=O)N[C@@H](Cc3ccccc3)C(N)=O)cc2)cc1` [Example 10-U], for which the IC50 stood at 44 nM. This IC50 lies about 2.6-fold higher than the previous one.

As to `O=C(Cc1c[nH]c2ccccc12)Nc1ccc(-c2ccc(C(=O)N[C@@H](Cc3ccccc3)C(=O)O)cc2)cc1` [Example 8-A], the IC50 is 20 nM.

Compound `CC(=O)N[C@@H](Cc1c[nH]c2ccccc12)C(=O)NCc1ccccc1-c1ccc(C(=O)N[C@@H](Cc2ccccc2)C(=O)O)cc1` [Example 8-P] yielded an IC50 of 70 nM. This IC50 lies about 3.5-fold higher than the previous one.

`CC(=O)N[C@@H](Cc1c[nH]c2ccccc12)C(=O)Nc1ccc(-c2ccc(C(=O)N[C@@H](CC(=O)O)C(N)=O)cc2)cc1` [Example 10-V] showed an IC50 of 1.3 nM.

With `CC(=O)N[C@@H](Cc1c[nH]c2ccccc12)C(=O)Nc1cccc(-c2ccc(C(=O)N[C@@H](Cc3ccccc3)C(=O)O)cc2)c1` [Example 8-N], the half-maximal inhibitory concentration (IC50) came to 0.8 nM.

`CC(=O)N[C@@H](Cc1c[nH]c2ccccc12)C(=O)Nc1ccc(C(=O)N[C@@H](Cc2ccccc2)C(=O)O)cc1` [Example 8-M] gave an IC50 of 28 nM. This IC50 is about 35-fold higher than that of the compound before.

For `CC(=O)N[C@H](Cc1c[nH]c2ccccc12)C(=O)Nc1ccc(-c2ccc(C(=O)NCCC(=O)O)cc2)cc1` [Example 8-G], the 50% inhibitory concentration (IC50) turned out to be 18 nM. Against the preceding compound, the IC50 is about 1.6-fold lower.

Regarding `CC(=O)N[C@@H](Cc1c[nH]c2ccccc12)C(=O)Nc1ccc(-c2ccc(C(=O)NCCc3ccccc3)cc2)cc1` [Example 11-W], the IC50 came out at 355 nM.

Turning to `CC(=O)N[C@@H](Cc1c[nH]c2ccccc12)C(=O)Nc1ccc(-c2ccc(C(N)=O)cc2)cc1` [Example 12-Y], the 50% inhibitory concentration (IC50) turned out to be 91 nM.

`CC(=O)N[C@@H](Cc1c[nH]c2ccccc12)C(=O)Nc1ccc(-c2ccc(C(=O)NCCC(=O)O)cc2)cc1` [Example 8-F] had an IC50 of 0.9 nM.

Compound `O=C(N[C@@H](Cc1c[nH]c2ccccc12)C(=O)Nc1ccc(-c2ccc(C(=O)N[C@@H](Cc3c[nH]c4ccccc34)C(=O)O)cc2)cc1)OCC1c2ccccc2-c2ccccc21` [Example 8-E] displayed an IC50 of 310 nM. Against the preceding compound, the IC50 is about 340-fold higher.

In turn, `CC(=O)N[C@@H](Cc1c[nH]c2ccccc12)C(=O)Nc1ccc(-c2ccc(C(=O)N[C@@H](Cc3ccc(O)cc3)C(=O)O)cc2)cc1` [Example 9-T] returned an IC50 of 3 nM.

`CC(=O)N[C@@H](Cc1c[nH]c2ccccc12)C(=O)Nc1ccc(-c2ccc(C(=O)N[C@H](Cc3ccccc3)C(=O)O)cc2)cc1` [Example 8-L] displayed a 50% inhibitory concentration (IC50) of 8 nM.

As to `CC(=O)N[C@H](Cc1c[nH]c2ccccc12)C(=O)Nc1ccc(-c2ccc(C(=O)N[C@@H](Cc3ccccc3)C(=O)O)cc2)cc1` [Example 8-K], the IC50 stood at 4 nM. This IC50 is about 2-fold lower than that of the compound before.

In turn, `CC(=O)N[C@@H](Cc1c[nH]c2ccccc12)C(=O)Nc1ccc(-c2cccc(C(=O)N[C@@H](Cc3ccccc3)C(=O)O)c2)cc1` [Example 8-O] displayed a concentration for half-maximal inhibition (IC50) of 167 nM.

Regarding `CC(=O)N[C@@H](Cc1c[nH]c2ccccc12)C(=O)Nc1ccc(-c2ccc(C(=O)N[C@@H](Cc3ccccc3)C(=O)O)cc2)cc1` [Example 8-J], the half-inhibitory concentration (IC50) was found to be 1.8 nM.

`O=C(N[C@@H](Cc1c[nH]c2ccccc12)C(=O)Nc1ccc(-c2ccc(C(=O)N[C@@H](Cc3ccccc3)C(=O)O)cc2)cc1)OCC1c2ccccc2-c2ccccc21` [Example 8-D] showed a half-maximal inhibitory concentration (IC50) of 190 nM.

As to `CC(=O)N[C@@H](Cc1c[nH]c2ccccc12)C(=O)Nc1ccc(-c2ccc(C(=O)O)cc2)cc1` [Example 8-R], the IC50 stood at 1500 nM.
